Reference: patent US20050037923A1, “Herbicidal mixture based on 7-pyrazolybenzoxazoles” (BASF Aktiengesellschaft, priority 2001, published 2005)
Counter-ions that a name gives are not always drawn.

Legend:
POLPE = test: Greenhouse test, post-emergence herbicidal action; format: in vivo, ladysthumb
Excerpt: (§1) For the post-emergence treatment, the test plants were first grown to a height of 3 to 20 cm, depending on the plant habit, and only then treated. Here, the herbicidal compositions were suspended or emulsified in water as distribution medium and sprayed using finely distributing nozzles.
(§2) The respective components A and B and/or C were formulated as 10% by weight strength emulsion concentrate and introduced to the spray liquor with the amount of solvent system used for applying the active compound. In the examples, the solvent used was water.
(§3) The test period extended over 21 days. During this time, the plants were tended, and their response to the treatments with active compound was evaluated.
(§4) The evaluation for the damage caused by the chemical compositions was carried out using a scale from 0 to 100%, compared to the untreated control plants. Here, 0 means no damage and 100 means complete destruction of the plants.
(§5) In the examples below, the value E which is to be expected if the activity of the individual active compounds is just additive was calculated using the method of S. R. Colby (1967) “Calculating synergistic and antagonistic responses of herbicide combinations”, Weeds 15, p. 22 ff. E=X+Y—(X·Y/100) where • X=effect in percent using active compound A at an application rate a; • Y=effect in percent using active compound B at an application rate b; • E=expected effect (in %) of A+B at application rates a+b.
(§6) The plants used in the greenhouse experiments were of the following species: […]

ECHCG = test: Greenhouse test, post-emergence herbicidal action; format: in vivo, barnyardgrass
Excerpt: as §1, §2, §3, §4, §5, §6

BIDPI [1] = test: Greenhouse test, post-emergence herbicidal action; format: in vivo, hairy beggarticks
Excerpt: as §1, §2, §3, §4, §5, §6

COMBE = test: Greenhouse test, post-emergence herbicidal action; format: in vivo, tropical spiderwort; details: 21 days
Excerpt: as §1, §2, §3, §4, §5, §6

SETFA = test: Greenhouse test, post-emergence herbicidal action; format: in vivo, giant foxtail; details: 21 days
Excerpt: as §1, §2, §3, §4, §5, §6

AVEFA = test: Greenhouse test, post-emergence herbicidal action; format: in vivo, wild oat
Excerpt: as §1, §2, §3, §4, §5, §6

THLAR = test: Greenhouse test, pre-emergence herbicidal action; format: in vivo, fanweed; details: application rate 250 g/ha
Excerpt: (§7) For the pre-emergence treatment, the test plants were sown is pots 1-2 days later, i.e. prior to germination, the pots were sprayed with the finely distributed herbicidal compositions, which had been suspended in water.
as §2, §3, §4, §5, §6

GALAP = test: Greenhouse test, post-emergence herbicidal action; format: in vivo, catchweed bedstraw
Excerpt: as §1, §2, §3, §4, §5, §6

BRAPL = test: Greenhouse test, post-emergence herbicidal action; format: in vivo, alexandergrass
Excerpt: as §1, §2, §3, §4, §5, §6

BIDPI [2] = test: Greenhouse test, pre-emergence herbicidal action; format: in vivo, hairy beggarticks
Excerpt: as §7, §2, §3, §4, §5, §6

ABUTH = test: Greenhouse test, pre-emergence herbicidal action; format: in vivo, velvet leaf
Excerpt: as §7, §2, §3, §4, §5, §6

[3] = application rate 62.5 g/ha (Example 24)
[4] = application rate 125 g/ha (Example 24)
[5] = application rate 15.63 g/ha, 21 days
[6] = application rate 31.25 g/ha, 21 days
[7] = application rate 125 g/ha (Example 32)
[8] = application rate 250 g/ha (Example 32)
[9] = application rate 125 g/ha (Example 28)
[10] = application rate 250 g/ha (Example 28)
[11] = application rate 0.49 g/ha (Example 32)
[12] = application rate 0.98 g/ha (Example 32)

O=C(O)c1c(Cl)ccc2cc(Cl)cnc12 [quinclorac]
Herbicidal action against POLPE, Found (POLPE; [3]): 15%
Herbicidal action against POLPE, Found (POLPE; [4]): 15%
Herbicidal action against ECHCG, Found (ECHCG; [3]): 10%
Herbicidal action against ECHCG, Found (ECHCG; [4]): 10%

CCCOc1nn(C(=O)[N-]S(=O)(=O)c2ccccc2C(=O)OC)c(=O)n1C.[Na+] [propoxycarbazone sodium salt]
Herbicidal action against BIDPI, Found (BIDPI [1]; application rate 3.91 g/ha (Example 27)): 30%
Herbicidal action against BIDPI, Found (BIDPI [1]; application rate 7.81 g/ha (Example 27)): 40%

CCc1cnc(C2=NC(C)(C(C)C)C(=O)N2)c(C(=O)O)c1 (stereo not drawn) [imazethapyr, reference compound]
Herbicidal action against POLPE, Found (POLPE; [5]): 40%
Herbicidal action against POLPE, Found (POLPE; [6]): 60%
Herbicidal action against COMBE, Found (COMBE; application rate 15.63 g/ha): 20%
Herbicidal action against COMBE, Found (COMBE; application rate 31.25 g/ha): 40%

CC/C(=N\OC/C=C/Cl)C1=C(O)CC(C2CCOCC2)CC1=O (stereo not drawn) [tepraloxydim, reference compound]
Herbicidal action against SETFA, Found (SETFA; application rate 7.81 g/ha): 70%
Herbicidal action against SETFA, Found (SETFA; application rate 15.63 g/ha): 80%
Herbicidal action against AVEFA, Found (AVEFA; application rate 7.81 g/ha, 21 days): 70%
Herbicidal action against AVEFA, Found (AVEFA; [5]): 80%

CS(=O)(=O)c1ccc(C(=O)C2C(=O)CCCC2=O)c([N+](=O)[O-])c1 [mesotrione]
Herbicidal action against ECHCG, Found (ECHCG; application rate 7.81 g/ha): 45%
Herbicidal action against ECHCG, Found (ECHCG; application rate 15.63 g/ha): 70%

CCC(CC)Nc1c([N+](=O)[O-])cc(C)c(C)c1[N+](=O)[O-] [pendimethalin]
Herbicidal action against THLAR, Found (THLAR): 40%

CC1(C)CON(Cc2ccccc2Cl)C1=O [clomazone]
Herbicidal action against POLPE, Found (POLPE; application rate 125 g/ha): 75%
Herbicidal action against POLPE, Found (POLPE; application rate 250 g/ha): 75%

CCC(C)(CC)c1cc(NC(=O)c2c(OC)cccc2OC)on1 [isoxaben]
Herbicidal action against GALAP, Found (GALAP; [7]): 0%
Herbicidal action against GALAP, Found (GALAP; [8]): 0%
Herbicidal action against ECHCG, Found (ECHCG; [7]): 0%
Herbicidal action against ECHCG, Found (ECHCG; [8]): 0%

COc1c(Cl)ccc(Cl)c1C(=O)O [dicamba]
Herbicidal action against BRAPL, Found (BRAPL; [9]): 20%
Herbicidal action against BRAPL, Found (BRAPL; [10]): 20%
Herbicidal action against AVEFA, Found (AVEFA; [9]): 20%
Herbicidal action against AVEFA, Found (AVEFA; [10]): 20%

CCc1cccc(C)c1N(C(=O)CCl)[C@@H](C)COC [S-metolachlor]
Herbicidal action against GALAP, Found (GALAP; application rate 125 g/ha (Example 29)): 0%
Herbicidal action against GALAP, Found (GALAP; application rate 250 g/ha (Example 29)): 20%

CCCc1nc2c(Cl)cc(F)c(-c3nn(C)c(OC(F)F)c3Br)c2o1 [I.15]
Herbicidal action against BIDPI, Found (BIDPI [1]; application rate 0.49 g/ha): 30%
Herbicidal action against BIDPI, Found (BIDPI [1]; application rate 0.98 g/ha): 40%
Herbicidal action against GALAP, Found (GALAP; application rate 0.49 g/ha (Example 29)): 40%
Herbicidal action against GALAP, Found (GALAP; application rate 0.49 g/ha (Example 30)): 40%
Herbicidal action against GALAP, Found (GALAP; [11]): 40%
Herbicidal action against GALAP, Found (GALAP; application rate 0.98 g/ha (Example 29)): 70%
Herbicidal action against GALAP, Found (GALAP; application rate 0.98 g/ha (Example 30)): 70%
Herbicidal action against GALAP, Found (GALAP; [12]): 70%
Herbicidal action against BRAPL, Found (BRAPL; application rate 0.49 g/ha): 30%
Herbicidal action against BRAPL, Found (BRAPL; application rate 0.98 g/ha): 75%
Herbicidal action against ECHCG, Found (ECHCG; [11]): 30%
Herbicidal action against ECHCG, Found (ECHCG; [12]): 40%

C[n+]1ccc(-c2cc[n+](C)cc2)cc1 [paraquat]
Herbicidal action against AVEFA, Found (AVEFA; application rate 62.5 g/ha): 70%
Herbicidal action against AVEFA, Found (AVEFA; application rate 125 g/ha): 80%

Cc1cnc(C2=NC(=O)C(C)(C(C)C)N2)c(C(=O)O)c1 (stereo not drawn) [imazapic, reference compound]
Herbicidal action against POLPE, Found (POLPE; [5]): 75%
Herbicidal action against POLPE, Found (POLPE; [6]): 80%
Herbicidal action against COMBE, Found (COMBE; application rate 15.63 g/ha): 0%
Herbicidal action against COMBE, Found (COMBE; application rate 31.25 g/ha): 40%

C/C(=N\NC(=O)Nc1cc(F)cc(F)c1)c1ncccc1C(=O)O [diflufenzopyr sodium salt]
Herbicidal action against BIDPI, Found (BIDPI [2]; application rate 62.5 g/ha): 40%
Herbicidal action against BIDPI, Found (BIDPI [2]; application rate 125 g/ha): 70%
Herbicidal action against ABUTH, Found (ABUTH; application rate 62.5 g/ha): 10%
Herbicidal action against ABUTH, Found (ABUTH; application rate 125 g/ha): 30%
